Results from ChEMBL document CHEMBL1201862, “PubChem BioAssay data set” (2004).
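These data come from cells grown in 96-well plates and exposed to compound for 48 hours at five concentrations. GI50: concentration for 50% inhibition of growth.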 Activity calls are given as the source filed them. No stated cut-off is given here; in the data, active = GI50 up to about 1.1 µM and inactive = higher.

What was measured:
Test in all cases: DTP human tumour cell line panel, 48 h
HT-29 = test system: HT-29
SNB-75 = test system: SNB-75
HL-60 = test system: HL-60
Malme-3M = test system: Malme-3M
RPMI-8226 = test system: RPMI-8226
UO-31 = test system: UO-31
SW-620 = test system: SW-620
SK-MEL-5 = test system: SK-MEL-5
ACHN = test system: ACHN
NCI-H522 = test system: NCI-H522
SR = test system: SR
SN12C = test system: SN12C
DU-145 = test system: DU-145
A498 = test system: A498
M14 = test system: M14
HCT-15 = test system: HCT-15
HCC 2998 = test system: HCC 2998
UACC-62 = test system: UACC-62
NCI-H23 = test system: NCI-H23
NCI/ADR-RES = test system: NCI/ADR-RES
TK-10 = test system: TK-10
CAKI-1 = test system: CAKI-1
SF-268 = test system: SF-268
MOLT-4 = test system: MOLT-4
CCRF-CEM = test system: CCRF-CEM
MCF7 = test system: MCF7
OVCAR-4 = test system: OVCAR-4
MDA-MB-435 = test system: MDA-MB-435
PC-3 = test system: PC-3
BT-549 = test system: BT-549
SF-539 = test system: SF-539
OVCAR-5 = test system: OVCAR-5
786-0 = test system: 786-0
SK-MEL-2 = test system: SK-MEL-2
A549 = test system: A549
EKVX = test system: EKVX
KM12 = test system: KM12
SF-295 = test system: SF-295
HOP-92 = test system: HOP-92
SK-OV-3 = test system: SK-OV-3
LOX IMVI = test system: LOX IMVI
HOP-62 = test system: HOP-62
OVCAR-8 = test system: OVCAR-8
NCI-H460 = test system: NCI-H460
OVCAR-3 = test system: OVCAR-3
Hs-578T = test system: Hs-578T
SK-MEL-28 = test system: SK-MEL-28
MDA-MB-231 = test system: MDA-MB-231
U-251 = test system: U-251
COLO 205 = test system: COLO 205
T47D = test system: T47D
RXF 393 = test system: RXF 393
IGROV-1 = test system: IGROV-1
MDA-N = test system: MDA-N
K562 = test system: K562
NCI-H226 = test system: NCI-H226
UACC-257 = test system: UACC-257
HCT-116 = test system: HCT-116
SNB-19 = test system: SNB-19

Cc1coc2c1C(OC(=O)C(C)C)C1(C)C(C)CCC(O)C1C2=O (stereo not given)
GI50 (HT-29): > 100 µM (inactive) | GI50 (SNB-75): > 100 µM (inactive) | GI50 (HL-60): 46 µM (inactive) | GI50 (Malme-3M): > 100 µM (inactive) | GI50 (RPMI-8226): 89.5 µM (inactive) | GI50 (UO-31): 50.2 µM (inactive) | GI50 (SW-620): > 100 µM (inactive) | GI50 (SK-MEL-5): > 100 µM (inactive) | GI50 (ACHN): > 100 µM (inactive) | GI50 (NCI-H522): 67.1 µM (inactive) | GI50 (SR): 51.2 µM (inactive) | GI50 (SN12C): > 100 µM (inactive) | GI50 (DU-145): > 100 µM (inactive) | GI50 (A498): > 100 µM (inactive) | GI50 (M14): > 100 µM (inactive) | GI50 (HCT-15): > 100 µM | GI50 (HCC 2998): > 91.4 µM (inactive) | GI50 (UACC-62): > 100 µM (inactive) | GI50 (NCI-H23): > 100 µM (inactive) | GI50 (NCI/ADR-RES): > 100 µM (inactive) | GI50 (TK-10): > 100 µM (inactive) | GI50 (CAKI-1): > 100 µM (inactive) | GI50 (SF-268): > 100 µM (inactive) | GI50 (MOLT-4): 93.1 µM (inactive) | GI50 (CCRF-CEM): 57.4 µM (inactive) | GI50 (MCF7): 98.2 µM (inactive) | GI50 (OVCAR-4): > 100 µM (inactive) | GI50 (MDA-MB-435): > 100 µM (inactive) | GI50 (PC-3): 97.9 µM (inactive) | GI50 (BT-549): > 50.8 µM (inactive) | GI50 (SF-539): > 100 µM (inactive) | GI50 (OVCAR-5): > 100 µM (inactive) | GI50 (786-0): > 100 µM (inactive) | GI50 (SK-MEL-2): > 100 µM (inactive) | GI50 (A549): > 100 µM (inactive) | GI50 (EKVX): > 100 µM (inactive) | GI50 (KM12): > 100 µM (inactive) | GI50 (SF-295): > 100 µM (inactive) | GI50 (HOP-92): > 100 µM (inactive) | GI50 (SK-OV-3): > 100 µM (inactive) | GI50 (LOX IMVI): > 100 µM (inactive) | GI50 (HOP-62): > 100 µM (inactive) | GI50 (OVCAR-8): > 100 µM (inactive) | GI50 (NCI-H460): > 100 µM (inactive) | GI50 (OVCAR-3): > 100 µM (inactive) | GI50 (Hs-578T): > 100 µM (inactive) | GI50 (SK-MEL-28): > 100 µM (inactive) | GI50 (MDA-MB-231): > 100 µM (inactive) | GI50 (U-251): > 100 µM (inactive) | GI50 (COLO 205): 97.7 µM (inactive) | GI50 (T47D): > 100 µM (inactive) | GI50 (RXF 393): > 100 µM (inactive) | GI50 (IGROV-1): > 100 µM (inactive) | GI50 (MDA-N): > 100 µM (inactive) | GI50 (K562): 54 µM (inactive) | GI50 (NCI-H226): > 100 µM (inactive) | GI50 (UACC-257): > 100 µM (inactive) | GI50 (HCT-116): > 100 µM (inactive)

Cc1cn(C2CC(O)C(Cn3cc(Cn4ncc(=O)[nH]c4=O)nn3)O2)c(=O)[nH]c1=O (stereo not given)
GI50 (HT-29): > 100 µM (inactive) | GI50 (SNB-75): > 100 µM (inactive) | GI50 (HL-60): > 100 µM (inactive) | GI50 (Malme-3M): > 100 µM (inactive) | GI50 (RPMI-8226): > 100 µM (inactive) | GI50 (UO-31): > 100 µM (inactive) | GI50 (SW-620): > 100 µM (inactive) | GI50 (SK-MEL-5): > 100 µM (inactive) | GI50 (ACHN): > 100 µM (inactive) | GI50 (NCI-H522): > 100 µM (inactive) | GI50 (SR): > 100 µM (inactive) | GI50 (SN12C): > 100 µM (inactive) | GI50 (DU-145): > 100 µM (inactive) | GI50 (A498): > 100 µM (inactive) | GI50 (M14): > 100 µM (inactive) | GI50 (HCT-15): > 100 µM | GI50 (HCC 2998): > 100 µM (inactive) | GI50 (UACC-62): > 100 µM (inactive) | GI50 (NCI-H23): > 100 µM (inactive) | GI50 (NCI/ADR-RES): > 100 µM (inactive) | GI50 (TK-10): > 100 µM (inactive) | GI50 (CAKI-1): > 100 µM (inactive) | GI50 (SF-268): > 100 µM (inactive) | GI50 (MOLT-4): > 100 µM (inactive) | GI50 (CCRF-CEM): 0.478 µM (active) | GI50 (MCF7): > 100 µM (inactive) | GI50 (OVCAR-4): > 100 µM (inactive) | GI50 (MDA-MB-435): > 100 µM (inactive) | GI50 (PC-3): > 100 µM (inactive) | GI50 (BT-549): > 100 µM (inactive) | GI50 (SF-539): > 100 µM (inactive) | GI50 (OVCAR-5): > 100 µM (inactive) | GI50 (786-0): > 100 µM (inactive) | GI50 (SK-MEL-2): > 100 µM (inactive) | GI50 (A549): > 100 µM (inactive) | GI50 (EKVX): > 100 µM (inactive) | GI50 (KM12): > 100 µM (inactive) | GI50 (SF-295): > 100 µM (inactive) | GI50 (HOP-92): > 100 µM (inactive) | GI50 (SNB-19): > 100 µM (inactive) | GI50 (SK-OV-3): > 100 µM (inactive) | GI50 (LOX IMVI): > 100 µM (inactive) | GI50 (HOP-62): > 100 µM (inactive) | GI50 (OVCAR-8): > 100 µM (inactive) | GI50 (OVCAR-3): > 100 µM (inactive) | GI50 (Hs-578T): > 100 µM (inactive) | GI50 (SK-MEL-28): > 100 µM (inactive) | GI50 (MDA-MB-231): > 100 µM (inactive) | GI50 (U-251): > 100 µM (inactive) | GI50 (COLO 205): > 100 µM (inactive) | GI50 (T47D): > 100 µM (inactive) | GI50 (RXF 393): > 100 µM (inactive) | GI50 (IGROV-1): > 100 µM (inactive) | GI50 (MDA-N): > 100 µM (inactive) | GI50 (NCI-H226): > 100 µM (inactive) | GI50 (UACC-257): > 100 µM (inactive) | GI50 (HCT-116): > 100 µM (inactive)
